Reference: ChEMBL document CHEMBL1147715, “Gatifloxacin derivatives: synthesis, antimycobacterial activities, and inhibition of Mycobacterium tuberculosis DNA gyrase” (Bioorg Med Chem Lett, 2006)
In brackets after ≈: the same amount, converted by molar mass.

Test system: Mycobacterium tuberculosis
Assay: Antimycobacterial activity against multi-drug resistant Mycobacterium tuberculosis
Assay type: functional

| SMILES | MIC |
| --- | --- |
| COc1c(N2CCN(CN3C(=O)/C(=N\c4ccc(S(=O)(=O)Nc5ncccn5)cc4)c4cc(C)ccc43)C(C)C2)c(F)cc2c(=O)c(C(=O)O)cn(C3CC3)c12 (configuration not stated) | 0.78 µg/mL (≈ 0.999 µM) |
| COc1c(N2CCN(Cn3c(O)c(/N=N/C(N)=O)c4ccccc43)C(C)C2)c(F)cc2c(=O)c(C(=O)O)cn(C3CC3)c12 (configuration not stated) | 0.05 µg/mL (≈ 0.0845 µM) |
| COc1c(N2CCN(Cn3c(O)c(/N=N/C(=O)c4ccncc4)c4cc(Cl)ccc43)C(C)C2)c(F)cc2c(=O)c(C(=O)O)cn(C3CC3)c12 (configuration not stated) | 0.78 µg/mL (≈ 1.13 µM) |
| COc1c(N2CCN(Cn3c(O)c(/N=N/C(=O)c4ccncc4)c4cc(F)ccc43)C(C)C2)c(F)cc2c(=O)c(C(=O)O)cn(C3CC3)c12 (configuration not stated) | 0.78 µg/mL (≈ 1.16 µM) |
| COc1c(N2CCN(CN3C(=O)/C(=N\c4ccc(S(=O)(=O)Nc5ncccn5)cc4)c4cc(Cl)ccc43)C(C)C2)c(F)cc2c(=O)c(C(=O)O)cn(C3CC3)c12 (configuration not stated) | 0.1 µg/mL (≈ 0.125 µM) |
| COc1c(N2CCN(Cn3c(O)c(/N=N/C(N)=O)c4cc(Cl)ccc43)C(C)C2)c(F)cc2c(=O)c(C(=O)O)cn(C3CC3)c12 (configuration not stated) | 0.78 µg/mL (≈ 1.25 µM) |
| COc1c(N2CCNC(C)C2)c(F)cc2c(=O)c(C(=O)O)cn(C3CC3)c12 (configuration not stated) [GATIFLOXACIN] | 3.12 µg/mL (≈ 8.31 µM) |
| COc1c(N2CCN(Cn3c(O)c(/N=N/C(=N)S)c4cc(F)ccc43)C(C)C2)c(F)cc2c(=O)c(C(=O)O)cn(C3CC3)c12 (configuration not stated) | 0.1 µg/mL (≈ 0.16 µM) |
| COc1c(N2CCN(Cn3c(O)c(/N=N/C(=O)c4ccncc4)c4cc(C)ccc43)C(C)C2)c(F)cc2c(=O)c(C(=O)O)cn(C3CC3)c12 (configuration not stated) | 0.78 µg/mL (≈ 1.17 µM) |
| COc1c(N2CCN(Cn3c(O)c(/N=N/C(=N)S)c4cc(C)ccc43)C(C)C2)c(F)cc2c(=O)c(C(=O)O)cn(C3CC3)c12 (configuration not stated) | 0.78 µg/mL (≈ 1.25 µM) |
| COc1c(N2CCN(Cn3c(O)c(/N=N/C(=N)S)c4cc(Cl)ccc43)C(C)C2)c(F)cc2c(=O)c(C(=O)O)cn(C3CC3)c12 (configuration not stated) | 0.78 µg/mL (≈ 1.21 µM) |
| COc1c(N2CCN(Cn3c(O)c(/N=N/C(=O)c4ccncc4)c4ccccc43)C(C)C2)c(F)cc2c(=O)c(C(=O)O)cn(C3CC3)c12 (configuration not stated) | 0.2 µg/mL (≈ 0.306 µM) |
| COc1c(N2CCN(Cn3c(O)c(/N=N/C(N)=O)c4cc(C)ccc43)C(C)C2)c(F)cc2c(=O)c(C(=O)O)cn(C3CC3)c12 (configuration not stated) | 0.78 µg/mL (≈ 1.29 µM) |
| COc1c(N2CCN(Cn3c(O)c(/N=N/C(=N)S)c4ccccc43)C(C)C2)c(F)cc2c(=O)c(C(=O)O)cn(C3CC3)c12 (configuration not stated) | 0.2 µg/mL (≈ 0.329 µM) |
| COc1c(N2CCN(CN3C(=O)/C(=N\c4ccc(S(=O)(=O)Nc5ncccn5)cc4)c4cc(F)ccc43)C(C)C2)c(F)cc2c(=O)c(C(=O)O)cn(C3CC3)c12 (configuration not stated) | 0.1 µg/mL (≈ 0.127 µM) |
| COc1c(N2CCN(Cn3c(O)c(/N=N/C(N)=O)c4cc(F)ccc43)C(C)C2)c(F)cc2c(=O)c(C(=O)O)cn(C3CC3)c12 (configuration not stated) | 0.2 µg/mL (≈ 0.328 µM) |
| COc1c(N2CCN(CN3C(=O)/C(=N\c4ccc(S(=O)(=O)Nc5ncccn5)cc4)c4ccccc43)C(C)C2)c(F)cc2c(=O)c(C(=O)O)cn(C3CC3)c12 (configuration not stated) | 0.1 µg/mL (≈ 0.13 µM) |
